Data on three compounds can be found in patent EP0206497B1, “Therapeutic nucleosides and their preparation” (priority 1985, dated 1986).

Format in all cases: cell-based
One data set concerns friend leukaemia virus. In words: Retroviral activity against friend leukaemia virus. To be noted: read-out: ED₅₀. How it is done: (§1) • a) Feline Leukaemia Virus Susceptible feline embryo lung fibroblasts (FLF-3) were seeded onto multiwell slides (10⁵ cells/ml, 0.05 ml/well) with Dulbecco-modified Eagle's essential medium (DME) and incubated at 37 °C overnight. Each of the 32 wells was then infected with 40-60 focus forming units (ffu) of feline leukaemia virus (FeLV) for one hour after which the medium was replaced with fresh DME with varying concentrations of 2,6-diaminopurine-9-β-D-2',3'-dideoxyribofuranoside per 4 wells. Concentrations were 0, 1.0, 10, 50, 100, 200 and 400 »M. After 3 days incubation at 37 °C, the cultures were assayed by the indirect fluorescent antigen test for the production of FeLV. […]. […] This protective effect was seen on both days 10 and 13 of the experiment. • c) Friend Leukaemia virus The compounds have been tested for retroviral activity against friend leukaemia virus with the following results.

Data set [1] can be described thus: Cytotoxic effect against D-98 cells. The conditions noted are these: human, 10⁻⁴ M, % growth relative to the control. As for the experimental part:
(§2) The following compounds were tested for cytotoxic effect at 10⁻⁴ M against human D-98 and mouse L cells. Figures shown are % growth relative to the control.

Data set [2] is described as follows: Cytotoxic effect against L cells. The conditions noted are these: mouse, 10⁻⁴ M, % growth relative to the control. As for the experimental part:
as §2

For data set [3], the system named is feline leukaemia virus (FeLV). Description: Feline leukaemia virus production in infected FLF-3 fibroblasts, indirect fluorescent antigen test. The conditions noted are these: FLF-3 cells; for inhibition: 3 days incubation. As for the experimental part:
as §1

The test system of a further data set is HIV. In words: Block of HIV infection / cytopathic effect in cloned T4 positive T helper lymphocytes (cell survival). The conditions noted are these: after 10 days in culture (protective effect seen on days 10 and 13), up to 5000 virions/cell, untreated infected cells 8-fold decreased. As for the experimental part:
as §1

Consider `Nc1nc2c(ncn2[C@H]2CC[C@@H](CO)O2)c(=O)[nH]1` [2',3'-dideoxyguanosine, reference compound], for which the EC50 with friend leukaemia virus turned out to be 25.9 µM. The values for the activity at 100 µM in data set [1] and in data set [2] were 87% and 93%, respectively.
For `Nc1nc(N)c2ncn([C@H]3CC[C@@H](CO)O3)c2n1` [2,6-Diaminopurine-9-β-D-2',3'-dideoxyribofuranoside], the inhibition in data set [3] (0.1 »M) is reported as 31%; in data set [3] (10 »M), 45%; in data set [3] (50 »M), 60%. For the same compound, the “production of FeLV” value in data set [3] (concentrations of 100 »M and above, 3 days incubation at 37°C) was “Complete absence of FeLV”. In addition, the “viral cytopathic effects in infected T cells” value in the data set on HIV (2 »M) and in the data set with HIV (10 »M) was “no viral cytopathic effects were seen” in each case. In the data set with friend leukaemia virus, the EC50 came to 22.4 µM. For the same compound, the activity at 100 µM is 97% in data set [1] and 41% in data set [2].
Regarding `Nc1ncc2ncn([C@H]3CC[C@@H](CO)O3)c2n1` [2-Aminopurine-9-β-D-2',3'-dideoxyribofuranoside], the figures for the activity at 100 µM in data set [1] and in data set [2] were 97% and 107%, respectively.
